The IC10 is the concentration needed for an effect of 10%. Lower therefore signals greater potency. One may read the IC50 as the concentration that inhibits the measured activity by half. A low value points to inhibition by little substance.

Series [1] has as its system Slug in BJ-5ta. Description: Western blot of Slug in TGF-β-stimulated fibroblasts. Type of series: cell-based. To be noted: 72 h treatment. Here is the method: (§1) The MCF-10A and BJ-5ta cells were seeded and cultivated for 24 h in a complete medium. One day after seeding, 30 ng/mL of TGF-β was added and cultivated for 7 days (d). TGF-β was added to induce epithelial–mesenchymal transition in tested cell lines. Lichen extract P. furfuracea (L.) Zopf and its metabolite physodic acid were added at time 0 h and then incubated for 24, 48 and 72 h for various analyses, as described in Figure 1.
(§2) Proteins isolated from MCF-10A and BJ-5ta cell lysates were determined by the Pierce® BCA Protein Assay Kit (Thermo Scientific, Rockford, IL, United States), using bovine serum albumin (BSA) as the standard, and measured by an automated Cytation™ 3 Cell Imaging Multi-Mode Reader (Biotek) at a wavelength of 570 nm. Proteins were separated on SDS-PAA gel (12%) at 100 V for 2 h and then transferred to a polyvinylidene difluoride (PVDF) membrane using the iBlot dry blotting system (Thermo Scientific, Rockford, IL, United States). […] After incubation, the membrane was again washed in TBS-Tween (3 × 5 min), and the expression of the protein was detected using a chemiluminescent ECL substrate (Thermo Fisher Scientific) and MF-ChemiBIS 2.0 Imaging System (DNR BIO-Imaging Systems, Jerusalem, Israel). The detected band was then analysed densitometrically using the Image Studio Lite software (LI-COR Biosciences, Lincoln, NE, USA). […]
(A western blot detects proteins with antibodies after separation by electrophoresis.)

Series [2] concerns MCF-10A. Description: BrdU cell proliferation assay. To be noted: 72 h. Type of series: cell-based, human. Here is the method: (§3) The MCF-10A (5 × 10^3/well), BJ-5ta (5 × 10^3/well) and HUVEC cells (4 × 10^3/well) were plated in a 96-well plate in 80 μL suitable medium. HUVECs were seeded onto a gelatine-coated plate. After 24 h, cells were treated with the range of concentration 10–100 μg/mL for 72 h (MCF-10A, BJ-5ta), or in the presence or absence of 25 ng/mL of VEGF for 48 h (HUVECs). After 48 h (MCF-10A, BJ-5ta) or 24 h (HUVECs), BrdU labelling solution was added into cells and incubated for another 24 h at 37 °C, followed by fixation and incubation with anti-BrdU peroxidase conjugate solution for an additional 1.5 h at room temperature (RT). Then, cells were washed with washing buffer PBS and incubated with substrate solution TMB for 5 to 30 min according to colour intensity. Finally, we added stop solution (1 M H2SO4) and incorporated BrdU was detected with an automated CytationTM 3 Cell Imaging Multi-Mode Reader at 450 nm (reference wavelength: 690 nm). Three independent experiments were performed at different intervals.

Series [3] has as its system HUVECs. Briefly: BrdU cell proliferation assay. Type of series: cell-based, human. To be noted: 48 h. Here is the method:
as §3

The subject of series [4] is Smad2/3 in BJ-5ta. Briefly: Western blot of total Smad2/3 in TGF-β-stimulated fibroblasts. Type of series: cell-based. To be noted: TGF-β-stimulated BJ-5ta. Here is the method: as §1, §2
Series [5] has as its system fibronectin in TGF-β-stimulated MCF-10A cells. Briefly: Fibronectin expression, immunofluorescence. Type of series: cell-based, human. To be noted: IC10, TGF-β-stimulated MCF-10A. Here is the method: as §1
The MCF-10A cells at a density of 2 × 10^3/cm^2, plated on 22 mm^2 glass coverslips, were stimulated for 7 days with 30 ng/mL of TGF-β. […] After treatment, cells were washed with PBS, fixed with 4% paraformaldehyde (pH 7.2) for 10 min, permeabilised by 0.1% Triton X-100 (Sigma-Aldrich) for 10 min at RT and then washed three) times with PBS for 5 min. Glass coverslips were then incubated with Swine serum (1:30) for 30 min for blocking non-specific binding. Primary antibodies were diluted according to the manufacturer’s instructions (Table 2) and transferred to coverslips for 90 min. […] All coverslips were mounted in Vectashield (Cole-Parmer, Illinois, USA) and immunofluorescence pictures were taken with the same exposition settings by the Nikon Eclipse 90i fluorescence microscope (Nikon, Tokyo, Japan) equipped with filter cubes for FITC and DAPI. Images were then analysed using ImageJ (NIH) software.

Series [6] has as its system MCF-10A, BJ-5ta and HUVEC cells. Description: MTS cell viability assay, range over the three cell lines. Type of series: cell-based. To be noted: cell viability and cell proliferation tests. Here is the method:
(§4) Briefly, MCF-10A and BJ-5ta were seeded in 96-well culture plates, and after 24 h incubation, treated with various ranges of concentrations of tested compounds (10–100 μg/mL) for 72 h. At the same time, HUVECs were seeded in a gelatine-coated 96-well plate and treated with the same aliquots of indicated compounds in the presence or absence of VEGF (Vascular endothelial growth factor) (25 ng/mL) for 48 h. Cell viability was evaluated by measuring the absorbance at 490 nm using the automated CytationTM 3 Cell Imaging Multi-Mode Reader (Biotek, Winooski, VT, USA). Three independent experiments were performed at different intervals.

In series [7] the test system is BJ-5ta. Briefly: MTS cell viability assay. To be noted: 72 h. Type of series: cell-based. Here is the method:
as §4
(Formazan colour is commonly taken as a measure of viable cells.)

As for `CCCCCC(=O)Cc1cc(O)cc2c1C(=O)Oc1cc(O)c(C(=O)O)c(CCCCC)c1O2` [Phy, physodic acid], the Slug protein result in series [1] is recorded as “downregulation”. Besides, the IC10 in series [2] turned out to be 63.63 ± 3.40 µM; in series [3], 89.53 ± 3.21 µM; in series [7] it was 46.35 ± 0.39 µM. The IC50 in series [2] (Homo sapiens) was found to be 155 ± 7.4 µM; in series [3] (Homo sapiens, HUVEC), 124 ± 5.33 µM; in series [7], 83.2 ± 1.02 µM. Further, the “total Smad2/3 levels” value in series [4] is recorded as “altered minimally”. In addition, the “fibronectin expression, immunofluorescence” value in series [5] is listed as “downregulation”. For the same compound, in series [6], the “degree of cytotoxicity on all tested cells” value was “did not show a high degree of cytotoxicity”.
